Where two headings read alike, the source gives them in different places.

In data set [1] the test system is HER2-positive GC. The note with it: monotherapy; cited from earlier work.
For another data set, the system named is BT-474 cells. Kind of data set: Combination of poziotinib with other anticancer drugs, synergy on proliferation. The data set is classed as cell-based. To be noted: HER2-overexpressed, ER-negative breast cancer cells.
For a further data set, the system named is MBA-MB-453 cells. The description is as above. The data set is classed as cell-based. The note with it: HER2 overexpressed trastuzumab resistant breast cancer cells; concentrations equal to or lower than the GI50 of poziotinib alone.
Data set [2] has as its system patients with HER2-positive GC. The note with it: patients who failed prior fluoropyrimidine and platinum, cited from earlier work.
The test system of data set [3] is HER2-positive breast cancer. To be noted: in combination with docetaxel plus trastuzumab; cited from earlier work.
For data set [4], the system named is HER2-positive GC. To be noted: in combination with chemotherapy; cited from earlier work.
For another data set, the system named is SK-BR-3 cells. Briefly: Combination of poziotinib with other anticancer drugs, synergy on proliferation. To be noted: HER2-overexpressed and ER-negative. The data set is classed as cell-based.
Another data set relates to MDA-MB-361 cells. The data set is described as above. The data set is classed as cell-based. To be noted: HER2-overexpressed, ER-positive, trastuzumab resistant.
A further data set has as its system MCF-7 cells. Described as above. The data set is classed as cell-based. To be noted: not HER1 and HER2-overexpressed and ER-positive.
The test system of the next data set is MDA-MB-468 cells. The data set is described as above. To be noted: HER2 negative, ER-negative, HER1-overexpressed triple negative breast cancer cells. The data set is classed as cell-based.
In data set [5] the test system is NSCLC patients having EGFR activating mutations. The note with it: in vivo; cited from earlier work.
A further data set deals with HER2-amplified GC cells. To be noted: in vitro; cited from earlier work.
Data set [6] has as its system patients with HER2-positive GC. Kind of data set: Phase I/II study of poziotinib combined with paclitaxel and trastuzumab: safety (TEAEs, DLT, MTD, dose adjustments). The data set is classed as in vivo. To be noted: for MTD of poziotinib: combined with paclitaxel and trastuzumab. The procedure: (§1) A prospective phase I/II study was conducted at 11 treatment centers in Korea. Patients with HER2-positive GC who previously had received one or more lines of chemotherapy were enrolled. Enrolled patients received oral poziotinib (8 mg or 12 mg) once daily for 14 days, followed by 7 days off.
(§2) Patients. […] Key exclusion criteria included: a history of hypersensitivity to drugs containing Cremophor® EL and trastuzumab; previous exposure to taxanes, and symptomatic central nervous system metastasis.
(§3) Treatment Procedures. […] DLTs were evaluated in 6 patients at each poziotinib dose level.
(§4) Safety Analyses and Efficacy. Adverse events (AEs) and TEAEs were evaluated using National Cancer Institute-Common Terminology Criteria for Adverse Events (version 4.03). DLTs were defined as grade […] non-hematologic toxicities (except for alopecia); grade ≥3 diarrhea, nausea and vomiting, despite maximal dosage of anti-diarrhea and/or anti-emetic medication (as applicable); and grade 4 neutropenia sustained for ≥7 days, grade 3-4 neutropenia with fever or infection, grade 4 thrombocytopenia and grade 3 thrombocytopenia sustained for 7 days, or with accompanying bleeding, or requiring transfusion. Left ventricular ejection fraction (LVEF) assessment was performed at baseline, on day 1 of the first 3 cycles and every 3 cycles thereafter. All patients who received at least one dose of poziotinib were included in the safety analysis. Tumor response was evaluated by CT or MRI of the thorax, abdomen and pelvis every 6 weeks using RECIST version 1.1, according to investigator assessment.
(§5) Statistical Analysis. The primary objective of phase I was to assess the safety and tolerability of poziotinib and to determine the MTD of poziotinib when combined with paclitaxel and trastuzumab. The primary objective of the phase II part was to assess the objective response rate (ORR) of poziotinib combined with paclitaxel and trastuzumab. The secondary objectives were to evaluate the safety and tolerability, progression-free survival (PFS), time to tumor progression (TTP) and duration of overall response (DOR).

For data set [7], the system named is patients with HER2-positive GC. Briefly: Phase I/II study of poziotinib combined with paclitaxel and trastuzumab: efficacy (tumor response RECIST 1.1, survival). The data set is classed as in vivo, human. The procedure:
as §1, §2, §3, §4, §5
For phase II, it was hypothesized that an ORR <5% would be ineffective and an ORR >20% would be considered to be clinically significant. Sample size was calculated using Simon's 2-stage minimax design, with 80% power and a significance level of 5%. Of the total 27 target subjects, 13 were required in the 1st stage. If the tumor response was 0 out of 13 patients, the study was planned to be terminated early. However, if at least 1 response was observed, an additional 14 patients would be enrolled in the study.

For data set [8] the following is noted: cited from earlier work; for ORR / median PFS: monotherapy.
[9] abbreviates: All patients, Phase I 12 mg (5).
Setting [10] is: All patients, Phase I Total (12).
Setting [11] is: All patients, Phase II RD: 8 mg (32).
The mark [12] stands for this setting: All patients, Total population Total (44).
The mark [13] stands for this setting: Trastuzumab-naïve patients, Phase I 8 mg (n 3).
Where [14] appears, read: Trastuzumab-naïve patients, Phase I Total (n 3).
Setting [15] is: Trastuzumab-naïve patients, Phase II RD: 8 mg (n 8).
Where [16] appears, read: Trastuzumab-naïve patients, Total population (n 11).
The mark [17] stands for this setting: Trastuzumab-pretreated Patients, Phase I 8 mg (n 4).
Setting [18] is: Trastuzumab-pretreated Patients, Phase I 12 mg (n 5).
[19] abbreviates: Trastuzumab-pretreated Patients, Phase I Total (n 9).
[20] abbreviates: Trastuzumab-pretreated Patients, Phase II RD: 8 mg (n 24).
[21] abbreviates: Trastuzumab-pretreated Patients, Total population (n 33).

Take `COc1cc2ncnc(Nc3ccc(F)c(Cl)c3)c2cc1NC(=O)/C=C/CN1CCCCC1` [dacomitinib]: in the data set on HER2-positive GC [1], the ORR is on record as 7.4% and the “median PFS” value is 2.1 months.

Take `N.N.[Cl][Pt][Cl]` [cisplatin]: the results for the “synergistic effect when combined with poziotinib” value (“synergistic effect when combined” below) in the data set on BT-474 cells and with MBA-MB-453 cells were “high synergistic effect” and “excellent synergistic effect”, respectively.

On to `O=c1[nH]cc(F)c(=O)[nH]1` [5-FU, 5-fluorouracil], for which the “synergistic effect when combined” value is reported as “high synergistic effect” in the data set on BT-474 cells and “excellent synergistic effect” in the data set on MBA-MB-453 cells.

For the compound trastuzumab emtansine, the ORR in data set [2] is 20.6%. Further, the “Efficacy compared with paclitaxel” value in data set [2] (phase III) was “not superior to paclitaxel”.

Consider `CC(=O)O[C@H]1C(=O)[C@@]2(C)[C@H]([C@H](OC(=O)c3ccccc3)[C@]3(O)C[C@H](OC(=O)[C@H](O)[C@@H](NC(=O)c4ccccc4)c4ccccc4)C(C)=C1C3(C)C)[C@]1(OC(C)=O)CO[C@@H]1C[C@@H]2O` [paclitaxel], for which the figures for the “synergistic effect when combined” value with BT-474 cells and with MBA-MB-453 cells were “high synergistic effect” and “excellent synergistic effect”, respectively.

“pertuzumab: anti-HER2 antibody used for dual blockade with trastuzumab”: the “Effect on OS” value in [3] is “significantly increased OS”; in the data set with HER2-positive GC [4], “did not extend OS”.

In the case of `CCC1=C[C@@H]2CN(C1)Cc1c([nH]c3ccccc13)[C@@](C(=O)OC)(c1cc3c(cc1OC)N(C)[C@H]1[C@@](O)(C(=O)OC)[C@H](OC(C)=O)[C@]4(CC)C=CCN5CC[C@]31[C@@H]54)C2` [vinorelbine], the “synergistic effect when combined” value in the data set on BT-474 cells was “synergistic effect was not observed”; in the data set with SK-BR-3 cells it was “sufficient effect was observed to indicate synergy”; with MDA-MB-361 cells it was “synergistic effect at some concentrations”; with MCF-7 cells, “synergy at every concentration”; in the data set with MDA-MB-468 cells, “synergistic effect was observed”.

On to `C#Cc1cccc(Nc2ncnc3cc(OCCOC)c(OCCOC)cc23)c1` [erlotinib], for which the “Patients observed to be resistant due to the EGFR T790M mutation” value in data set [5] is listed as “about 60%”.

For the compound `CS(=O)(=O)CCNCc1ccc(-c2ccc3ncnc(Nc4ccc(OCc5cccc(F)c5)c(Cl)c4)c3c2)o1` [lapatinib], in the data set on HER2-amplified GC cells, the “anti-tumor activity of dual blockade with trastuzumab” value is recorded as “highly synergistic anti-tumor activity”.

As for `C=CC(=O)N1CCC(Oc2cc3c(Nc4ccc(Cl)c(Cl)c4F)ncnc3cc2OC)CC1` [poziotinib, 1-[4-[4-(3,4-dichloro-2-fluorophenylaminino)-7-methoxyquinazolin-6-yloxy]-piperidin-1-yl]prop-2-en-1-one], the “TEAEs by Maximum Severity: Grade 5 (death)” value in data set [6] (Phase I 12 mg (n = 5)) was found to be 0 n. For the same compound, the “TEAEs leading to death” value in data set [6] (Phase I 12 mg (n = 5)) is on record as 0 n. In addition, the MTD of poziotinib in [6] (Phase I part of the current study) stood at 8 mg/day; in data set [6] (Phase I, once daily 14 days, 7 days off), 8 mg. Further, the “AE related to poziotinib: Fatigue” value in [6] (human, in vivo) was 0 n. Moreover, in data set [6] (human, in vivo), the “AE related to poziotinib: Myalgia” value came out at 0 n. Also, in data set [6] (human, in vivo), the “AE related to poziotinib: Vomiting” value is 0 n. For the same compound, in data set [6] (human, in vivo), the “Left ventricular systolic dysfunction (LVSD)” value is “no grade 3 or 4 left ventricular systolic dysfunction”. The “TEAE ≥Grade 3: Abdominal pain” value in data set [6] (human, in vivo) came to 0 n. Moreover, in data set [6] (human, in vivo), the “TEAE ≥Grade 3: Mucosal inflammation” value was found to be 0 n. The “TEAE ≥Grade 3: Pruritus” value in data set [6] (human, in vivo) stood at 0 n. Also, the “TEAE ≥Grade 3: Rash” value in data set [6] (human, in vivo) is 0 n. For the same compound, the “TEAE ≥Grade 3: Stomatitis” value in [6] (human, in vivo) is reported as 0 n. In data set [6] (human, in vivo), the “TEAEs by Maximum Severity: Grade 1 (mild)” value was determined as 0 n. In addition, the “Overall survival, Median” value was determined as 30.6 weeks in data set [7] (All patients, Phase I 8 mg (7)); 19.9 weeks in data set [7] (setting [9]); 30.6 weeks in data set [7] (setting [10]); 29.5 weeks in data set [7] (setting [11]); 29.5 weeks in [7] (setting [12]); 194.9 weeks in data set [7] (setting [13]). Further, the “Overall survival, Median” value in [7] (setting [14]) came out at 194.9 weeks; in [7] (setting [15]), 42.6 weeks; in [7] (setting [16]), 59.2 weeks; in data set [7] (setting [17]) it was 30.6 weeks; in data set [7] (setting [18]), 19.9 weeks; in data set [7] (setting [19]), 21.1 weeks. The “Overall survival, Median” value in data set [7] (setting [20]) and in [7] (setting [21]) was 29.5 weeks throughout. Moreover, the “Progression free survival, Median” value is reported as 17.1 weeks in data set [7] (All patients, Phase I 8 mg (7)); 17.7 weeks in data set [7] (setting [9]); 17,7 weeks in [7] (setting [10]); 13.0 weeks in data set [7] (setting [11]); 16.0 weeks in data set [7] (setting [12]); 30.6 weeks in [7] (setting [13]). For the same compound, the “Progression free survival, Median” value turned out to be 30.6 weeks in data set [7] (setting [14]); 18.7 weeks in data set [7] (setting [15]); 20.7 weeks in data set [7] (setting [16]); 15.5 weeks in [7] (setting [17]); 17.7 weeks in data set [7] (setting [18]); 17.7 weeks in [7] (setting [19]). The “Progression free survival, Median” value in data set [7] (setting [20]) came to 13.0 weeks; in [7] (setting [21]) it was 15.0 weeks. Also, the “Time to tumor progression, Median” value worked out at 18.2 weeks in data set [7] (All patients, Phase I 8 mg (7)); 17.7 weeks in [7] (setting [9]); 17.9 weeks in [7] (setting [10]); 15.0 weeks in data set [7] (setting [11]); 17.1 weeks in [7] (setting [12]). In addition, the “Best overall response: CR” value in data set [7] (Phase I 8 mg (n = 7)), in data set [7] (Phase I 12 mg (n = 5)) and in [7] (Phase I Total (n = 12)) was 0 n each time. Further, the “Duration of overall response, Median” value in [7] (Phase I 8 mg, 2 patients) is reported as 14.5 weeks; in [7] (Phase I 12 mg, 2 patients), 20.4 weeks; in data set [7] (Phase I Total) it was 15.0 weeks; in data set [7] (Phase II RD: 8 mg, 7 patients), 26.8 weeks. Moreover, in data set [7] (Phase I 12 mg (n = 5)), the “Best overall response: unknown” value was found to be 0 n. In addition, the “Patients with tumor shrinkage” value in [7] (Phase II) was “Twenty”. Further, the Disease control rate in [7] (setting [15]) was 5 n. Further, the “MTD of poziotinib as monotherapy” value in data set [8] (continuous dosing) is reported as 18 mg/day; in [8] (intermittent dosing (14 days on and 7 days off)), 24 mg/day. For the same compound, the figures for the ORR in data set [8] (continuous dosing schedule) and in data set [8] (intermittent dosing schedule) were 21% and 16%, respectively. Moreover, the “median PFS” value is 9.0 weeks in [8] (continuous dosing schedule) and 12.0 weeks in data set [8] (intermittent dosing schedule).

The values are drawn from patent US20210260064A1, “POZIOTINIB COMBINATIONS WITH AN ANTI-HER1, HER2 OR HER4 ANTIBODY AND METHODS OF USE THEREOF” (Spectrum Pharmaceuticals, Inc., priority 2018, published 2021).
